Results reported in ChEMBL document CHEMBL5154807, “Design and development of photoswitchable DFG-Out RET kinase inhibitors” (Eur J Med Chem, 2022).

Columns and labels:
[1] = Thermal stability of compound in water assessed as half-life; format: physicochemical
[2] = target: T1, Proto-oncogene tyrosine-protein kinase receptor Ret (Homo sapiens, UniProt P07949); test: Inhibition of human RET kinase using IGF1Rtide as substrate incubated for 40 mins and measured by ADP-Glo assay
[3] = Thermal stability of compound in DMSO assessed as half-life; format: physicochemical
[4] = Drug degradation in 10 mM GSH after 20 hrs measured by LC-MS analysis; format: ADME; conditions: 10000 µM
[5] = target: T1, Proto-oncogene tyrosine-protein kinase receptor Ret; test: Inhibition of full-length RET kinase expressed in human HEK293 cells and measured by NanoBRET assay; format: cell-based

T1 sequence (P07949 whole entry): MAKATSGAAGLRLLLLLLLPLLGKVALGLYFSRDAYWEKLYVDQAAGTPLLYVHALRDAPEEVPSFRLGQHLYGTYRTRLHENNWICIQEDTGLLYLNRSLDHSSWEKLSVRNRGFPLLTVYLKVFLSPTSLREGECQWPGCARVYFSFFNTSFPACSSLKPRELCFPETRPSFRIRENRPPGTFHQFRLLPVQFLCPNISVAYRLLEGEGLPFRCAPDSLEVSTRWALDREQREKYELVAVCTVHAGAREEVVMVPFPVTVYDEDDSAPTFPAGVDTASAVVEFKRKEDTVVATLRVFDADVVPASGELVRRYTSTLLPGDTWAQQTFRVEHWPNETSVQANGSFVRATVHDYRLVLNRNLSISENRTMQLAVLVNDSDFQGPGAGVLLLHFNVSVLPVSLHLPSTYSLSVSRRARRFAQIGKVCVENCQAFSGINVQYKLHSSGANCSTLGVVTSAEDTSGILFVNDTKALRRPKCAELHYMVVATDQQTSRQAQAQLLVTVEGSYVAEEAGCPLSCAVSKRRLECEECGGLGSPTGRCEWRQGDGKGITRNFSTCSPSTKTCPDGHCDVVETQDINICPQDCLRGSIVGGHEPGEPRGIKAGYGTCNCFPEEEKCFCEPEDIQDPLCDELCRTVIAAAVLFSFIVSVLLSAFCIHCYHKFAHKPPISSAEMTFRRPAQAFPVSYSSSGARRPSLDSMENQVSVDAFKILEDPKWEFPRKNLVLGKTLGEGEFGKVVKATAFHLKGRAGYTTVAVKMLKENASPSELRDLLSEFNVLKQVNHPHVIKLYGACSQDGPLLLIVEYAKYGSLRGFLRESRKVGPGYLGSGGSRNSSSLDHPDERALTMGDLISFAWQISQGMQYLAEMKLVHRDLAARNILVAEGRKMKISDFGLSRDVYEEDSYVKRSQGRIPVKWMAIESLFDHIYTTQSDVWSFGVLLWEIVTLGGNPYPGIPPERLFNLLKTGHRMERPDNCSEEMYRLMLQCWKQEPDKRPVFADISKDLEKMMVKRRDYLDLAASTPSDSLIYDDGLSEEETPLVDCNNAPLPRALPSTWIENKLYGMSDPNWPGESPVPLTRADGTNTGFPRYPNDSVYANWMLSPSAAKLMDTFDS

Compound	IC50 [2] [nM]	also measured
CN1CCN(Cc2ccc(NC(=O)c3ccc(F)c(/N=N/c4cnc5ccccc5c4)c3F)cc2C(F)(F)F)CC1	11	half-life [1]: 1.58 days; half-life [3]: 32.5 days; Stability [4]: Stable
CN1CCN(Cc2ccc(NC(=O)c3cccc(/C=C/c4cnc5ccccc5c4Nc4ccccc4)c3)cc2C(F)(F)F)CC1	2300	
Cc1cccc2cc(/C=C/c3cccc(C(=O)Nc4ccc(CN5CCN(C)CC5)c(C(F)(F)F)c4)c3)cnc12	257	
CN1CCN(Cc2ccc(NC(=O)c3cccc(/C=C\c4cnc5ccccc5c4N(C)C)c3)cc2C(F)(F)F)CC1	2400	
CC(C)c1cccc2cc(/C=C/c3cccc(C(=O)Nc4ccc(CN5CCN(C)CC5)c(C(F)(F)F)c4)c3)cnc12	9800	
CCc1cccc2cc(/C=C\c3cccc(C(=O)Nc4ccc(CN5CCN(C)CC5)c(C(F)(F)F)c4)c3)cnc12	25000	
CN1CCN(Cc2ccc(NC(=O)c3cccc(/C=C\c4cnc5ccccc5c4N4CCCC4)c3)cc2C(F)(F)F)CC1	2200	
CCCc1cccc2cc(/C=C\c3cccc(C(=O)Nc4ccc(CN5CCN(C)CC5)c(C(F)(F)F)c4)c3)cnc12	> 500000	
CN1CCN(Cc2ccc(NC(=O)c3cccc(/C=C\c4cnc5ccccc5c4Nc4ccccc4)c3)cc2C(F)(F)F)CC1	49000	
COc1c(/N=N\c2cccc(C(=O)Nc3ccc(CN4CCN(C)CC4)c(C(F)(F)F)c3)c2)cnc2ccccc12	363	IC50 [5]: 3890 nM
CN1CCN(Cc2ccc(NC(=O)c3cccc(/N=N/c4cnc5[nH]ccc5c4)c3)cc2C(F)(F)F)CC1	3	half-life [1]: 26.2 days; half-life [3]: 15.7 days; Stability [4]: Stable
COc1c(/C=C/c2cccc(C(=O)Nc3ccc(CN4CCN(C)CC4)c(C(F)(F)F)c3)c2)cnc2ccccc12	12.4	
COc1c(/N=N/c2cccc(C(=O)Nc3ccc(CN4CCN(C)CC4)c(C(F)(F)F)c3)c2)cnc2ccccc12	24	half-life [1]: 16.8 days; IC50 [5]: 920 nM; half-life [3]: 12.6 days
CN1CCN(Cc2ccc(NC(=O)c3ccc(F)c(/N=N\c4cnc5ccccc5c4)c3F)cc2C(F)(F)F)CC1	17	half-life [1]: 1.58 days
COc1c(/C=C\c2cccc(C(=O)Nc3ccc(CN4CCN(C)CC4)c(C(F)(F)F)c3)c2)cnc2ccccc12	1800	
CC(C)n1nc(-c2ccc(NC(=O)Nc3cc(C(F)(F)F)ccc3F)cc2)c2c(N)ncnc21	1.3	
CN1CCN(Cc2ccc(NC(=O)c3cccc(/C=C/c4cnc5ccccc5c4)c3)cc2C(F)(F)F)CC1	7.8	
CCCc1cccc2cc(/C=C/c3cccc(C(=O)Nc4ccc(CN5CCN(C)CC5)c(C(F)(F)F)c4)c3)cnc12	5600	
CN1CCN(Cc2ccc(NC(=O)c3cccc(/N=N/c4cnc5ccccc5c4)c3)cc2C(F)(F)F)CC1	9.5	half-life [1]: 9.04 days; half-life [3]: 8.67 days; Stability [4]: Stable
CC(C)c1cccc2cc(/C=C\c3cccc(C(=O)Nc4ccc(CN5CCN(C)CC5)c(C(F)(F)F)c4)c3)cnc12	> 500000	
Cc1cccc2cc(/C=C\c3cccc(C(=O)Nc4ccc(CN5CCN(C)CC5)c(C(F)(F)F)c4)c3)cnc12	12600	
CN1CCN(Cc2ccc(NC(=O)c3cccc(/C=C\c4cnc5ccccc5c4)c3)cc2C(F)(F)F)CC1	900	
CN1CCN(Cc2ccc(NC(=O)c3cccc(/C=C/c4cnc5ccccc5c4N(C)C)c3)cc2C(F)(F)F)CC1	98	
CCc1cccc2cc(/C=C/c3cccc(C(=O)Nc4ccc(CN5CCN(C)CC5)c(C(F)(F)F)c4)c3)cnc12	1700	
CN1CCN(Cc2ccc(NC(=O)c3cccc(/C=C/c4cnc5ccccc5c4N4CCCC4)c3)cc2C(F)(F)F)CC1	66	
CN1CCN(Cc2ccc(NC(=O)c3cccc(/N=N\c4cnc5ccccc5c4)c3)cc2C(F)(F)F)CC1	15	
